Assay results reported in patent US20100016366A1, “Novel Compounds Active as Muscarinic Receptor Antagonists” (priority 2008, published 2010).

How the values were obtained:
[1] = molecular target: T1, human muscarinic M3 receptor (Homo sapiens, UniProt P20309); assay: hM3 competition binding assay (3H-NMS, CHO cell membranes); conditions: CHO cell membranes expressing human M3; 3H-NMS at 5×KD, 24 hr at RT; IC50 corrected by Cheng-Prussoff
T1 construct: expressed in transfected cells; host or cells: CHO (CHO-K1) cells
T1 sequence (P20309 whole entry): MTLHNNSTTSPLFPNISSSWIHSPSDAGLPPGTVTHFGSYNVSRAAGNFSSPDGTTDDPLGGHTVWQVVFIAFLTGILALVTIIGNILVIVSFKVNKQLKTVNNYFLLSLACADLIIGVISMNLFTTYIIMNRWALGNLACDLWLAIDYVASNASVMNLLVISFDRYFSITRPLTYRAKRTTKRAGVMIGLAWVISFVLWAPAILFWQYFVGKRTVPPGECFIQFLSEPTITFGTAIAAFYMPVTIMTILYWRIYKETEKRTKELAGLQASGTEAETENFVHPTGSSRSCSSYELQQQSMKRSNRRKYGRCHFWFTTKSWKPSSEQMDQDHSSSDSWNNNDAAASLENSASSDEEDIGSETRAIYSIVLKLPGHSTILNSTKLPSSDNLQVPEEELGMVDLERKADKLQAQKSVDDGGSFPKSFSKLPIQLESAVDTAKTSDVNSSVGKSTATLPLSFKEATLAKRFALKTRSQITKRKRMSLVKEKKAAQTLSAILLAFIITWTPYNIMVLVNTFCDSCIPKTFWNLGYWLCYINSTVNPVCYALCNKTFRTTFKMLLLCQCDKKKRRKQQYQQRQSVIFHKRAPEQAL
Method in brief: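 Membranes from CHO cells expressing human M3, 5 µg/well, incubated 24 h at RT with ³H-NMS at 5×KD in 20 mM HEPES pH 7.4; filtration and scintillation counting. Non-specific binding with 1 µM atropine. IC50 from specific-binding curves converted to Ki via Cheng-Prusoff.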

[2] = molecular target: T1, human muscarinic M3 receptor; assay: Cell based potency assessment, hM3 β-lactamase assay (CHO cell β-lactamase); conditions: CHO cells recombinantly expressing human M3, NFAT-β-lactamase reporter; inhibition of 80 nM carbamyl choline signal, 4 h; IC50 converted by Cheng-Prusoff
Method: Cell BASED POTENCY ASSESSMENT at the Human Recombinant M3 Muscarinic Receptor
M3 potency was determined in CHO-K1 cells transfected with the NFAT-Betalactamase gene. CHO (Chinese Hamster Ovary) cells recombinantly expressing the human muscarinic M3 receptor were transfected with the NFAT_β-Lac_Zeo plasmid. Cells were grown in DMEM with Glutamax-1, supplemented with 25 mM HEPES (Life Technologies 32430-027), containing 10% FCS (Foetal Calf Serum; Sigma F-7524), […] Sodium pyruvate (Sigma S-8636), NEAA (non-Essential Amino Acids; Invitrogen 11140-035) and 200 μg/ml Zeocin (Invitrogen R250-01).
hM3 β-Lactamase Assay Protocol
Cells were harvested for assay when they reached 80-90% confluency using enzyme free cell Dissociation Solution (Life technologies 13151-014) incubated with the cells for 5 min at 37° C. in an atmosphere containing 5% CO2. Detached cells were collected in warmed growth media and centrifuged at 2000 rpm for 10 min, washed in PBS (Phosphate Buffered Saline; Life Technologies 14190-094) and centrifuged again as just described. The cells were re-suspended at 2×10^5 cells/ml in growth medium (composition as described above). 20 μl of this cell suspension was added to each well of a 384 well black clear bottomed plate (Greiner Bio One 781091-PFI). The assay buffer used was PBS supplemented with 0.05% Pluronic F-127 (Sigma 9003-11-6) and 2.5% DMSO. Muscarinic M3 receptor signalling was stimulated using 80 nM carbamyl choline (Aldrich N240-9) incubated with the cells for 4 h at 37° C./5% CO2 and monitored at the end of the incubation period using a Tecan SpectraFluor+plate reader (λ−excitation 405 nm, emission 450 nm and 503 nm). M3 receptor antagonists under test were added to the assay at the beginning of the 4 h incubation period and compound activity measured as the concentration dependent inhibition of the carbamyl choline induced signal. Inhibition curves were plotted and IC50 values generated using a 4-parameter sigmoid fit and converted to Ki values using the Cheng-Prusoff correction and the KD value for carbamyl choline in the assay.

| Ki [1] [nM] | Ki [2] [nM] | Structure (SMILES) |
| --- | --- | --- |
| 2.15 | 0.25 | CN(CCCCCCCCCN1CCC(OC(=O)Nc2ccccc2-c2ccccc2)CC1)C(=O)c1ccc(O)c(Cl)c1 [Example 17, Biphenyl-2-yl-carbamic acid 1-{9-[(3-chloro-4-hydroxy-benzoyl)-methyl-amino]-nonyl}-piperidin-4-yl ester] |
| 2.29 | 0.353 | CN(CCCCCCCCCN1CCC(OC(=O)Nc2ccccc2-c2ccccc2)CC1)C(=O)Cc1ccc(O)c(F)c1 [Example 18, Biphenyl-2-yl-carbamic acid 1-(9-{[2-(3-fluoro-4-hydroxy-phenyl)-acetyl]-methyl-amino}-nonyl)-piperidin-4-yl ester] |
| 1.45 | 1.32 | O=C(Nc1ccccc1-c1ccccc1)OC1CCN(CCCCCCCCCNC(=O)c2ccc(Cl)c(O)c2)CC1 [Example 19, Biphenyl-2-yl-carbamic acid 1-[9-(4-chloro-3-hydroxy-benzoylamino)-nonyl]-piperidin-4-yl ester] |
| 1.95 | 0.918 | O=C(Nc1ccccc1-c1ccccc1)OC1CCN(CCCCCCCCCNC(=O)c2ccc(O)cc2F)CC1 [Example 20, Biphenyl-2-yl-carbamic acid 1-[9-(2-fluoro-4-hydroxy-benzoylamino)-nonyl]-piperidin-4-yl ester] |
| 1.26 | 0.682 | O=C(Nc1ccccc1-c1ccccc1)OC1CCN(CCCCCCCCCNC(=O)c2ccc(O)cc2Cl)CC1 [Example 21, Biphenyl-2-yl-carbamic acid 1-[9-(2-chloro-4-hydroxy-benzoylamino)-nonyl]-piperidin-4-yl ester] |
| 0.865 | 0.149 | O=C(Nc1ccccc1-c1ccccc1)OC1CCN(CCCCCCCCCNCc2cc(Cl)c(O)c(Cl)c2)CC1 [Example 22, Biphenyl-2-yl-carbamic acid 1-[9-(3,5-dichloro-4-hydroxy-benzylamino)-nonyl]-piperidin-4-yl ester] |
| 2.38 | 0.276 | O=C(Nc1ccccc1-c1ccccc1)OC1CCN(CCCCCCCCCNC(=O)c2ccc(O)c(F)c2F)CC1 [Example 23, Biphenyl-2-yl-carbamic acid 1-[9-(2,3-difluoro-4-hydroxy-benzoylamino)-nonyl]-piperidin-4-yl ester] |
| 4.34 | 0.854 | O=C(Nc1ccccc1-c1ccccc1)OC1CCN(CCCCCCCCCNC(=O)c2cc(Cl)c(O)c(Cl)c2)CC1 [Example 25, Biphenyl-2-yl-carbamic acid 1-[9-(4-hydroxy-3,5-dichloro-benzoylamino)-nonyl]-piperidin-4-yl ester] |
| 1.1 | 0.208 | O=C(Nc1ccccc1-c1ccccc1)OC1CCN(CCCCCCCCCNCc2cc(F)c(O)c(F)c2)CC1 [Example 27, Biphenyl-2-yl-carbamic acid 1-[9-(3,5-difluoro-4-hydroxy-benzylamino)-nonyl]-piperidin-4-yl ester] |
| 3.83 | 3.59 | O=C(Nc1ccccc1-c1ccccc1)OC1CCN(CCCCCCCCCNCc2cc(Cl)c(Cl)cc2O)CC1 [Example 28, Biphenyl-2-yl-carbamic acid 1-[9-(2-hydroxy-4,5-dichloro-benzylamino)-nonyl]-piperidin-4-yl ester] |
| 1.35 | 0.816 | O=C(Nc1ccccc1-c1ccccc1)OC1CCN(CCCCCCCCCNCc2cc(F)cc(F)c2O)CC1 [Example 29, Biphenyl-2-yl-carbamic acid 1-[9-(2-hydroxy-3,5-difluoro-benzylamino)-nonyl]-piperidin-4-yl ester] |
| 1.31 | 0.705 | O=C(Nc1ccccc1-c1ccccc1)OC1CCN(CCCCCCCCCNCc2cccc(F)c2O)CC1 [Example 30, Biphenyl-2-yl-carbamic acid 1-[9-(2-hydroxy-3-fluoro-benzylamino)-nonyl]-piperidin-4-yl ester] |
| 2.47 | 0.728 | O=C(Nc1ccccc1-c1ccccc1)OC1CCN(CCCCCCCCCNCc2cc(Cl)cc(Cl)c2O)CC1 [Example 31, Biphenyl-2-yl-carbamic acid 1-[9-(2-hydroxy-3,5-dichloro-benzylamino)-nonyl]-piperidin-4-yl ester] |
| 3.04 | 1.34 | O=C(Nc1ccccc1-c1ccccc1)OC1CCN(CCCCCCCCCNCc2cc(Cl)ccc2O)CC1 [Example 32, Biphenyl-2-yl-carbamic acid 1-[9-(5-chloro-2-hydroxy-benzylamino)-nonyl]-piperidin-4-yl ester] |
| 6.04 | 2.72 | O=C(Nc1ccccc1-c1ccccc1)OC1CCN(CCCCCCCCCNCc2cc(F)c(Cl)cc2O)CC1 [Example 33, Biphenyl-2-yl-carbamic acid 1-[9-(2-hydroxy-4-chloro-5-fluoro-benzylamino)-nonyl]-piperidin-4-yl ester] |
| 0.787 | 0.96 | O=C(Nc1ccccc1-c1ccccc1)OC1CCN(CCCCCCCCCNCc2ccc(O)c(Cl)c2)CC1 [Example 34, Biphenyl-2-yl-carbamic acid 1-[9-(3-chloro-4-hydroxy-benzylamino)-nonyl]-piperidin-4-yl ester] |
| 1.38 | 1.64 | O=C(Nc1ccccc1-c1ccccc1)OC1CCN(CCCCCCCCCNCc2cc(F)ccc2O)CC1 [Example 35, Biphenyl-2-yl-carbamic acid 1-[9-(2-hydroxy-5-fluoro-benzylamino)-nonyl]-piperidin-4-yl ester] |
| 0.235 | 2.24 | O=C(Nc1ccccc1-c1ccccc1)OC1CCN(CCCCCCCCCNCc2ccc(F)c(O)c2)CC1 [Example 36, Biphenyl-2-yl-carbamic acid 1-[9-(3-hydroxy-4-fluoro-benzylamino)-nonyl]-piperidin-4-yl ester] |
| 0.342 | 1.12 | O=C(Nc1ccccc1-c1ccccc1)OC1CCN(CCCCCCCCCNCc2ccc(Cl)c(O)c2Cl)CC1 [Example 37, Biphenyl-2-yl-carbamic acid 1-[9-(2,4-dichloro-3-hydroxy-benzylamino)-nonyl]-piperidin-4-yl ester] |
| 0.175 | 1.48 | O=C(Nc1ccccc1-c1ccccc1)OC1CCN(CCCCCCCCCNCc2ccc(O)c(F)c2)CC1 [Example 38, Biphenyl-2-yl-carbamic acid 1-[9-(4-hydroxy-3-fluoro-benzylamino)-nonyl]-piperidin-4-yl ester] |
